Experimental data reported in BindingDB's records for doi:10.1016/j.bmcl.2003.08.049 (Merck Research Laboratories, 2003).

Target: T1, Dimer of Gag-Pol polyprotein [489-587,Q496K] (Human immunodeficiency virus 1, UniProt P12497, Q496K)
T1 construct: 489-587
Experiment: Protease Inhibition Assay
Details: pH 5.5; 30 °C
Description: Assay of HIV protease inhibition was performed by peptide cleavage using the substrate Val-Ser-Gln-Asn-beta-naphthylalanine*Pro-Ile-Val. Products of the cleavage reaction were quantified by HPLC detection, and data were fit to nonlinear least squares equations for determination of steady-state Michaelis-Menten kinetics.

SMILES: O=C(N[C@H]1c2ccccc2OC[C@H]1O)[C@H](Cc1cccnc1)C[C@H](O)CN1CCN(Cc2ccc(-c3ccccc3)o2)C[C@H]1C(=O)NCC(F)(F)F [(2S)-1-[(2S,4R)-2-hydroxy-4-{[(3S,4S)-3-hydroxy-3,4-dihydro-2H-1-benzopyran-4-yl]carbamoyl}-4-(pyridin-3-ylmethyl)butyl]-4-[(5-phenylfuran-2-yl)methyl]-N-(2,2,2-trifluoroethyl)piperazine-2-carboxamide]
- IC50: 0.02 nM
